Among the data in ChEMBL document CHEMBL2311368 (Bioorg Med Chem Lett, 2013) are IC50 and Kd values, retold here.

The target of test [1] is Mast/stem cell growth factor receptor Kit (Homo sapiens, UniProt P10721, T670I). Put plainly: Inhibition of human c-Kit T670I mutant using poly[Glu:Tyr] (4:1) peptide substrate.
In test [2] the target is Mast/stem cell growth factor receptor Kit (Homo sapiens, UniProt P10721, V654A). Kind of test: Inhibition of human c-Kit V654A mutant using poly[Glu:Tyr] (4:1) peptide substrate.
Sequence of Mast/stem cell growth factor receptor Kit (Homo sapiens, UniProt P10721, V654A) (P10721 26-976 V654A limits assumed): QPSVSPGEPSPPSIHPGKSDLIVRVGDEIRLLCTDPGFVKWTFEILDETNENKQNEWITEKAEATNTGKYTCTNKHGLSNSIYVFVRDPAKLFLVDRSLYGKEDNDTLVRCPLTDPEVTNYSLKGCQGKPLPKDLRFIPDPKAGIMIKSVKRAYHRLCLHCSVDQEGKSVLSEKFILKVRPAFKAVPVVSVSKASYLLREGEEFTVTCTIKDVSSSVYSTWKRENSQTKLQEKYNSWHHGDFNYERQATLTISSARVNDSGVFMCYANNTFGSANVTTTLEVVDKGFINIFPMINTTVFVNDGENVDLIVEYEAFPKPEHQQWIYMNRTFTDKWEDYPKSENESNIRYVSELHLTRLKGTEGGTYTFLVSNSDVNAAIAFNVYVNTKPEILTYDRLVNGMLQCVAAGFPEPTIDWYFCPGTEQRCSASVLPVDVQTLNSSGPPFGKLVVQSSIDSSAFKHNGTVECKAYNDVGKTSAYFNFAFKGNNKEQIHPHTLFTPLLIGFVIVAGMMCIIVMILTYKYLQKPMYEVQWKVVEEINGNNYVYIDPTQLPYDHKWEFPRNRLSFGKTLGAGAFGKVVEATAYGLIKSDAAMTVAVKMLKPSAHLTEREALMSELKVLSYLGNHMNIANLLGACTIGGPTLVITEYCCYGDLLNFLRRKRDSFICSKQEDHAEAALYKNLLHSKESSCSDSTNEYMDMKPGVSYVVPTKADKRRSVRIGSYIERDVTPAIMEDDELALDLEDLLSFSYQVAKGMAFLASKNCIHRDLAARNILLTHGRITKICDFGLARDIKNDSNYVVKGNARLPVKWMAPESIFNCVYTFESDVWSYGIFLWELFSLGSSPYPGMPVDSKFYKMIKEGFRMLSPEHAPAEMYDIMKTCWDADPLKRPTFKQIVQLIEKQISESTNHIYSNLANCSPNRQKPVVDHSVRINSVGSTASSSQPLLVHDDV
The target in test [3] is T1, Platelet-derived growth factor receptor beta (Homo sapiens, UniProt P09619). Kind of test: Binding affinity to human PDGFRbeata.
T1 sequence (P09619 whole entry): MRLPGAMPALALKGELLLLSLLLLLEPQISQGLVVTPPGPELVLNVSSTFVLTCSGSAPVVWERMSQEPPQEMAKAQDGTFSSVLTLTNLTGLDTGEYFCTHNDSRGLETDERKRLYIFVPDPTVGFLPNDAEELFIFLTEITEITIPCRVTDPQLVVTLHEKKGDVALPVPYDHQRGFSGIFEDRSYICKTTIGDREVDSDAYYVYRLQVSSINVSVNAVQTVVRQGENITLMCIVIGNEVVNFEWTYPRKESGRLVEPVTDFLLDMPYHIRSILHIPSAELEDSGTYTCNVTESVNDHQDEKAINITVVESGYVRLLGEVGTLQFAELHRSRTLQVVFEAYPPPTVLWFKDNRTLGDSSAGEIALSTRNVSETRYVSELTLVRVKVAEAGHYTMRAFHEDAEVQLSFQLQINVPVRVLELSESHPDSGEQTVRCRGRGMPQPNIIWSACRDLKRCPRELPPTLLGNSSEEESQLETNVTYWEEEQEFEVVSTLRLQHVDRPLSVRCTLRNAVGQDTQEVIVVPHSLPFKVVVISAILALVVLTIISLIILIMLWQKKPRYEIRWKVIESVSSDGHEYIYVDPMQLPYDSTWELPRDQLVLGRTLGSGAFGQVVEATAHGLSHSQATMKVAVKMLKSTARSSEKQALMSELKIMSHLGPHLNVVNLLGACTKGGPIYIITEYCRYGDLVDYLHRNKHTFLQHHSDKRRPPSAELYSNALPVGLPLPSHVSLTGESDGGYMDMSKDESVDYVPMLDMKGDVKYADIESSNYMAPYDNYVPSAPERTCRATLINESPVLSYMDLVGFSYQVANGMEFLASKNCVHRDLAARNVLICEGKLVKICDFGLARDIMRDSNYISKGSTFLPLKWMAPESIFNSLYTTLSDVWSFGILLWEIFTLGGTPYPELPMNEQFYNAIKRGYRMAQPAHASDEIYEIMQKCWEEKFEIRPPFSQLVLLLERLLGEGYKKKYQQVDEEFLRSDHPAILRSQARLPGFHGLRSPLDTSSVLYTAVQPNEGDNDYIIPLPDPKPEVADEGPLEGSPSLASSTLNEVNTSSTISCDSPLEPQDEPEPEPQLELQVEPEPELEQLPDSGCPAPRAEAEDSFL
For test [4], the target named is T2, Mast/stem cell growth factor receptor Kit (Homo sapiens, UniProt P10721). Put plainly: Binding affinity to human c-Kit.
T2 sequence (P10721 whole entry): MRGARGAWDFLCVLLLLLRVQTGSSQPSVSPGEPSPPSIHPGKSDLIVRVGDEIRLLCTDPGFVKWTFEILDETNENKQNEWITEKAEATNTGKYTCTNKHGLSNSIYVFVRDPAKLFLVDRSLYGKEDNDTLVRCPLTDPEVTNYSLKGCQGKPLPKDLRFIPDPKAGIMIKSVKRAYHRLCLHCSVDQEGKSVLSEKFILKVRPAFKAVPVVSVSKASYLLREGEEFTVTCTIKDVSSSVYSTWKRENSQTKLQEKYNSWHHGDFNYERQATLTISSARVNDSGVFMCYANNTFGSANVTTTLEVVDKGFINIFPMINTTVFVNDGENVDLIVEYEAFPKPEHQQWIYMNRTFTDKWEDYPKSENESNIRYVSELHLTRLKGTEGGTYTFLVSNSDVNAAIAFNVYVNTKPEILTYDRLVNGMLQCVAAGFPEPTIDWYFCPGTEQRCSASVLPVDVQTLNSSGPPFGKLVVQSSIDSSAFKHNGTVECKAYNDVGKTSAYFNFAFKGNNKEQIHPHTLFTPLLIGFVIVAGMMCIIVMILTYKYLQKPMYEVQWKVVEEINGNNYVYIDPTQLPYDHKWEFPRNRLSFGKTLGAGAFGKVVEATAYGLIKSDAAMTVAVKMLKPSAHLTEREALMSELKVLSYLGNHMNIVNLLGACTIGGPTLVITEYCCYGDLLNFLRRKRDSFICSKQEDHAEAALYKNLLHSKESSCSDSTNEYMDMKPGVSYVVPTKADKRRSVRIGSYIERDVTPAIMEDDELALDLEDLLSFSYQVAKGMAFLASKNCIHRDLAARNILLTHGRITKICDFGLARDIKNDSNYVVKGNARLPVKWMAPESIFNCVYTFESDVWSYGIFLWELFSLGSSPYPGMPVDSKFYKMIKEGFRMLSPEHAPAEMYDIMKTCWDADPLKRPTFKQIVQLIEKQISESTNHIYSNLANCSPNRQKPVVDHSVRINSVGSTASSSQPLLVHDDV
Test [5] deals with T3, Receptor-type tyrosine-protein kinase FLT3 (Homo sapiens, UniProt P36888).
T3 sequence (P36888 whole entry): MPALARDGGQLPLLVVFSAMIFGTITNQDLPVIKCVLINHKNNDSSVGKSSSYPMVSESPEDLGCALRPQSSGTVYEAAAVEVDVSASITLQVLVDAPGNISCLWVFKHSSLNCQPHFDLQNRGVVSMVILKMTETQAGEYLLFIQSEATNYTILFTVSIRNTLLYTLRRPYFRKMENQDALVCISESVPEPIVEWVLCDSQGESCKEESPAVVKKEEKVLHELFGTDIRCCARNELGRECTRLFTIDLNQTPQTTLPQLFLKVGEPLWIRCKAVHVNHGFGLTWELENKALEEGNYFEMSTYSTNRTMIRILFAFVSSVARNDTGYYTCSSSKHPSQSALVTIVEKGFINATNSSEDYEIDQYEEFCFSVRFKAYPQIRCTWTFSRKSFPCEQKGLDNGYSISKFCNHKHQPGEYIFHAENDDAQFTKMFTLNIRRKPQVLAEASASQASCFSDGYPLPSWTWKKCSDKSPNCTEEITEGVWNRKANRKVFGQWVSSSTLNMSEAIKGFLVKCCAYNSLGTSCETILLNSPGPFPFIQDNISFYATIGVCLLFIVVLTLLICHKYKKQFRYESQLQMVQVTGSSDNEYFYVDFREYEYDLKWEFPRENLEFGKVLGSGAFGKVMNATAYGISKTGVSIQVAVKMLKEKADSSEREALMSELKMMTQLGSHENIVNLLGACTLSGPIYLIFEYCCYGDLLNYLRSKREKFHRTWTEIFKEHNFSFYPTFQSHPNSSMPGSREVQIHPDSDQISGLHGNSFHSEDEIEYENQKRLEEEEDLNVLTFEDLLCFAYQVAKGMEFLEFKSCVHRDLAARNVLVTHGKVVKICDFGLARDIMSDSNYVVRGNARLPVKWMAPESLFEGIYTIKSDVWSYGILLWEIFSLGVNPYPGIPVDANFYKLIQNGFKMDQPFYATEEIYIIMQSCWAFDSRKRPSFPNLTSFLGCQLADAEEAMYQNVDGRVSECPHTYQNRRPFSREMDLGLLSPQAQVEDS
Put plainly: Binding affinity to human FLT3.

For test [6], the target named is T1, Platelet-derived growth factor receptor beta. Put plainly: Inhibition of human PDGFRbeta using poly[Glu:Tyr] (4:1) peptide substrate.
Test [7] deals with T3, Receptor-type tyrosine-protein kinase FLT3. Kind of test: Inhibition of human FLT3 using EAIYAAPFAKKK peptide substrate.
In test [8] the target is Tyrosine-protein kinase Lck (Homo sapiens, UniProt P06239). Put plainly: Inhibition of human LCK using poly[Glu:Tyr] (4:1) peptide substrate.
Sequence of Tyrosine-protein kinase Lck (P06239 whole entry): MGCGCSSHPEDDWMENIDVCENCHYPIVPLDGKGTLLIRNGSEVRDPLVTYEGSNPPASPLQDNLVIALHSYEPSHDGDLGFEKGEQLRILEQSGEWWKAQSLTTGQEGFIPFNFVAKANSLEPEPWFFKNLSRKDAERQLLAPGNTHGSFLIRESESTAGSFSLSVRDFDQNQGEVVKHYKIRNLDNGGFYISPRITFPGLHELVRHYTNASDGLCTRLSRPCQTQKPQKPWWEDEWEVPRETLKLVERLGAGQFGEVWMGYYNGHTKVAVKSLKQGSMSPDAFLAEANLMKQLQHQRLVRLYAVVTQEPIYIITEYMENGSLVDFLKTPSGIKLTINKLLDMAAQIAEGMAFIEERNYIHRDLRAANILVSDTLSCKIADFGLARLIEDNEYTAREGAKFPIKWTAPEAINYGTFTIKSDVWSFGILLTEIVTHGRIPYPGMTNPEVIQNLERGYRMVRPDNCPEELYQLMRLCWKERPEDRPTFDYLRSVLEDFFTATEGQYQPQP
Test [9] concerns the target T2, Mast/stem cell growth factor receptor Kit. Kind of test: Inhibition of human c-Kit using poly[Glu:Tyr] (4:1) peptide substrate.
Test [10] deals with T4, Discoidin domain-containing receptor 2 (Homo sapiens, UniProt Q16832).
T4 sequence (Q16832 whole entry): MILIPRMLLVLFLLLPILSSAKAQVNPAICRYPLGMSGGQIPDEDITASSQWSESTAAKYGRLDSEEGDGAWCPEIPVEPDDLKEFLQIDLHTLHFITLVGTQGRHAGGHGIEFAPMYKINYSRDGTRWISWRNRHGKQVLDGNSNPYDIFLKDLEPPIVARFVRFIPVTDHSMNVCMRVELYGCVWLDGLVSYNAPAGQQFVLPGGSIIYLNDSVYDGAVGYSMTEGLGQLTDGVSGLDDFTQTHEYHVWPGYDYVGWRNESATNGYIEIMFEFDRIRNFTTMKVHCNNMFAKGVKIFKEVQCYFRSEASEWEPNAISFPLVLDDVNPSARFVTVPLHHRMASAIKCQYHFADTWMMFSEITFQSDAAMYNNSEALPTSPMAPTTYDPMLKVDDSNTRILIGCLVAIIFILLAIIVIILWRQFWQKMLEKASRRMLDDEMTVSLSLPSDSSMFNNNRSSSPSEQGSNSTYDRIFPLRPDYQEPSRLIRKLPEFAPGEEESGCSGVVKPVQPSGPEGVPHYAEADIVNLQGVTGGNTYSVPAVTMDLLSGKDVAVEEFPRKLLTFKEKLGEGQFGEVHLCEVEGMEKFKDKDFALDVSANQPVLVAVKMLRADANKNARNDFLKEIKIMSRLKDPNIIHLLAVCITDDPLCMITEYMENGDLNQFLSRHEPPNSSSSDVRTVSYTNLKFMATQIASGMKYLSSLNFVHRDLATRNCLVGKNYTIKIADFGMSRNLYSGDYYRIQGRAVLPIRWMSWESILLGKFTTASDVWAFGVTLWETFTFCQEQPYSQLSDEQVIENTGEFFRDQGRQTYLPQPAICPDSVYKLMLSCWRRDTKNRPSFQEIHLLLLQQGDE
Put plainly: Inhibition of human DDR2 using KKSRGDYMTMQIG peptide substrate.

The target of test [11] is T4, Discoidin domain-containing receptor 2.
Description: Binding affinity to human DDR2

Molecules are shown by their SMILES.

Sequence of Mast/stem cell growth factor receptor Kit (Homo sapiens, UniProt P10721, T670I) (P10721 26-976 T670I limits assumed): as the sequence (P10721 26-976 V654A limits assumed) above, with A629V, T645I counted along it

Turning to `Cc1cn(-c2cccc(NC(=O)c3ccc(C)c(Nc4nccc(-c5cccnc5)n4)c3)c2)cn1`, the IC50 – broadly, the concentration needed to halve the response being measured – in [1] is above 1000 nM; in test [2], above 1000 nM; in test [6], 35400 nM; in [7], 974 nM; in test [8], 44600 nM; in test [9], 32.5 nM. For the same compound, in [10], the IC50 was determined as 653 nM. The Kd (commonly the free concentration of one partner at which half of the binding sites on the other are occupied at equilibrium, for simple one-to-one binding) worked out at 7.2 nM in [3], 4.4 nM in [4], 1400 nM in test [5] and 320 nM in test [11].

For the compound `Cc1cc(NC(=O)c2ccc(C)c(Nc3nccc(-c4cccnc4)n3)c2)cc(-n2cnc(C)c2)c1`, the IC50 in test [1] is above 1000 nM; in test [2], above 1000 nM; in test [6], 768 nM; in test [7] it was 882 nM; in [8], 1450 nM; in [9], 54.9 nM. The IC50 in test [10] worked out at 17.2 nM. Besides, the Kd in test [3] is 12 nM; in test [4], 14 nM; in test [5], 1200 nM; in test [11], 5.6 nM.

Take `Cc1cn(-c2cc(F)cc(NC(=O)c3ccc(C)c(Nc4nccc(-c5cccnc5)n4)c3)c2)cn1`: the IC50 was above 1000 nM in test [1]; above 400 nM in [2]; above 5000 nM in [6]; 118 nM in test [7]; 11100 nM in test [8]; 9.96 nM in [9]. Half-maximal inhibition in [10] (IC50) was put at 179 nM. The Kd was 8.5 nM in test [3], 3.5 nM in test [4], 58 nM in test [5] and 14 nM in [11].
